# Test results: patent publication US9328122B2, “7-substituted Hanfangichin B derivative, and preparation method and use thereof” (HANGZHOU BENSHENG PHARMACEUTICAL CO., LTD., priority 2012, dated 2016)
# What was measured:
# Test in all cases: MTT cell growth inhibition, solid tumor cells
# Type in all cases: cell-based
# [1] = tested on: Becap-37 (human breast cancer) cells; conditions: Homo sapiens, Becap-37, 72 h, MTT; for IC50: read-out: IC50; for IC90: read-out: IC90
# In short: (§1)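 Viable cell levels were read by MTT after a 72 h exposure to varying compound concentrations at 37 °C in 5% CO2; cells (6000 per well) had been pre-cultured 24 h in DMEM high glucose containing 10% fetal bovine serum.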
# [2] = tested on: Hela (human cervical cancer) cells; conditions: Homo sapiens, Hela, 72 h, MTT; for IC50: read-out: IC50; for IC90: read-out: IC90
# In short: as §1
# [3] = tested on: MGC-803 (human gastric cancer) cells; conditions: MGC-803, 72 h, MTT; for IC50: read-out: IC50; for IC90: read-out: IC90
# In short: as §1
IC50 [1],IC90 [1],IC50 [2],IC90 [2],IC50 [3],IC90 [3],SMILES
2.49 µg/mL,4 µg/mL,1.44 µg/mL,3.39 µg/mL,1.71 µg/mL,4.95 µg/mL,COc1ccc2cc1Oc1ccc(cc1)C[C@H]1c3cc(c(OC)cc3CCN1C)Oc1c(OS(=O)(=O)c3ccc(C)cc3)c(OC)cc3c1[C@H](C2)N(C)CC3 [BS-FC-102]
1.92 µg/mL,3.94 µg/mL,1 µg/mL,3.42 µg/mL,1.36 µg/mL,4.28 µg/mL,COc1ccc2cc1Oc1ccc(cc1)C[C@H]1c3cc(c(OC)cc3CCN1C)Oc1c(OS(=O)(=O)c3ccccc3)c(OC)cc3c1[C@H](C2)N(C)CC3 [BS-FC-104]
4.87 µg/mL,7.89 µg/mL,0.5 µg/mL,1 µg/mL,2.94 µg/mL,8.5 µg/mL,COc1ccc2cc1Oc1ccc(cc1)C[C@H]1c3cc(c(OC)cc3CCN1C)Oc1c(OCc3cccc(F)c3F)c(OC)cc3c1[C@H](C2)N(C)CC3 [BS-FC-204]
2.35 µg/mL,5.55 µg/mL,1.74 µg/mL,4 µg/mL,1.49 µg/mL,5.98 µg/mL,COc1ccc2cc1Oc1ccc(cc1)C[C@H]1c3cc(c(OC)cc3CCN1C)Oc1c(OCC3CC3)c(OC)cc3c1[C@H](C2)N(C)CC3 [BS-FC-208]
2.54 µg/mL,5.29 µg/mL,1.68 µg/mL,3.89 µg/mL,1.49 µg/mL,6.02 µg/mL,C=CCOc1c(OC)cc2c3c1Oc1cc4c(cc1OC)CCN(C)[C@H]4Cc1ccc(cc1)Oc1cc(ccc1OC)C[C@@H]3N(C)CC2 [BS-FC-213]
3.36 µg/mL,5.3 µg/mL,1.58 µg/mL,3.84 µg/mL,2.72 µg/mL,3.98 µg/mL,COc1ccc2cc1Oc1ccc(cc1)C[C@H]1c3cc(c(OC)cc3CCN1C)Oc1c(OCc3ccc(C(F)(F)F)cc3)c(OC)cc3c1[C@H](C2)N(C)CC3 [BS-FC-216]
3.19 µg/mL,6.1 µg/mL,1.43 µg/mL,3.71 µg/mL,1.4 µg/mL,3.96 µg/mL,COc1ccc2cc1Oc1ccc(cc1)C[C@H]1c3cc(c(OC)cc3CCN1C)Oc1c(OC3CCCC3)c(OC)cc3c1[C@H](C2)N(C)CC3 [BS-FC-220]
1.91 µg/mL,3.86 µg/mL,0.71 µg/mL,1.9 µg/mL,1.19 µg/mL,3.93 µg/mL,C=C(C)COc1c(OC)cc2c3c1Oc1cc4c(cc1OC)CCN(C)[C@H]4Cc1ccc(cc1)Oc1cc(ccc1OC)C[C@@H]3N(C)CC2 [BS-FC-221]
3.15 µg/mL,7.22 µg/mL,1.87 µg/mL,4.65 µg/mL,1.87 µg/mL,10.2 µg/mL,COc1ccc2cc1Oc1ccc(cc1)C[C@H]1c3cc(c(OC)cc3CCN1C)Oc1c(OC(=O)C3CC3)c(OC)cc3c1[C@H](C2)N(C)CC3 [BS-FC-304]
